According to ChEMBL document CHEMBL4002639, “DL-3-n-butylphthalide-Edaravone hybrids as novel dual inhibitors of amyloid-β aggregation and monoamine oxidases with high antioxidant potency for Alzheimer's therapy” (Bioorg Med Chem Lett, 2017):
Active and inactive are the calls of the source. The calls are words filed in the database; no cut-off is given here.

Assays:
[1] = biological target: T1, Amine oxidase [flavin-containing] B (Homo sapiens, UniProt P27338); test: Inhibition of recombinant human MAO-B at 10 uM using kynuramine as substrate after 30 mins by fluorescence assay; conditions: 0.5 h
T1 sequence (P27338 whole entry): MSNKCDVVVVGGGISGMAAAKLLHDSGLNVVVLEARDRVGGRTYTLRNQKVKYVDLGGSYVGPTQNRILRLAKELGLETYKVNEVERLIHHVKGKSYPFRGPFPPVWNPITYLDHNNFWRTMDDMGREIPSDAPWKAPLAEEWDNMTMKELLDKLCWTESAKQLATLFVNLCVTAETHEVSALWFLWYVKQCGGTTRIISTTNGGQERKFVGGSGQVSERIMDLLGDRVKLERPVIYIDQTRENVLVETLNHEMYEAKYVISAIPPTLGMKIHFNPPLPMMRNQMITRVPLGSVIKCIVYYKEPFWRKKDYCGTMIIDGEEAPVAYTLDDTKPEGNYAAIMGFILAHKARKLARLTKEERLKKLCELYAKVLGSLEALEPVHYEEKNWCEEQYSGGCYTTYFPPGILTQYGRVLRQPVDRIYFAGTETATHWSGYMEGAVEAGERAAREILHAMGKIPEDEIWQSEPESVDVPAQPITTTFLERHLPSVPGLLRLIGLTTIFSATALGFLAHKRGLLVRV

[2] = Antioxidant activity assessed as trolox equivalent of AAPH radical scavenging activity at 1 uM preincubated for 15 mins followed by AAPH addition measured every min for 90 mins by ORAC-FL assay; assay type: functional
[3] = biological target: T2, Amine oxidase [flavin-containing] A (Homo sapiens, UniProt P21397); test: Inhibition of recombinant human MAO-A at 10 uM using kynuramine as substrate after 30 mins by fluorescence assay; conditions: 0.5 h
T2 sequence (P21397 whole entry): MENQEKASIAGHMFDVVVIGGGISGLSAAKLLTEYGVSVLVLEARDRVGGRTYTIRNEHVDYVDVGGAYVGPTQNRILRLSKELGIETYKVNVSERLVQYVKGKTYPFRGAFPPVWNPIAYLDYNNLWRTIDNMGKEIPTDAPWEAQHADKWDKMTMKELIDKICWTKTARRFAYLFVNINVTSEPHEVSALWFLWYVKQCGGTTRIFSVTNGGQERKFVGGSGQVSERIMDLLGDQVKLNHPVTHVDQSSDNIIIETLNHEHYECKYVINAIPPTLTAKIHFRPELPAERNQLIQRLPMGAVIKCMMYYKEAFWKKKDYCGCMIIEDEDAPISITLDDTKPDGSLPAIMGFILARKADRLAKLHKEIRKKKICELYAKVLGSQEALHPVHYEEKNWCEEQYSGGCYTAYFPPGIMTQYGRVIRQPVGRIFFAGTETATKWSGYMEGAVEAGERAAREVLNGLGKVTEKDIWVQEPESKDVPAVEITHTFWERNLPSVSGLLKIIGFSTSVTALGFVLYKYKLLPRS

[4] = biological target: Amyloid-beta precursor protein (Homo sapiens) (UniProt P05067); test: Inhibition of self-induced Amyloid beta (1 to 42) (unknown origin) aggregation at 25 uM after 24 hrs by thioflavin T-based fluorometric assay relative to control
Chain of Amyloid-beta precursor protein (Homo sapiens) (P05067 whole entry): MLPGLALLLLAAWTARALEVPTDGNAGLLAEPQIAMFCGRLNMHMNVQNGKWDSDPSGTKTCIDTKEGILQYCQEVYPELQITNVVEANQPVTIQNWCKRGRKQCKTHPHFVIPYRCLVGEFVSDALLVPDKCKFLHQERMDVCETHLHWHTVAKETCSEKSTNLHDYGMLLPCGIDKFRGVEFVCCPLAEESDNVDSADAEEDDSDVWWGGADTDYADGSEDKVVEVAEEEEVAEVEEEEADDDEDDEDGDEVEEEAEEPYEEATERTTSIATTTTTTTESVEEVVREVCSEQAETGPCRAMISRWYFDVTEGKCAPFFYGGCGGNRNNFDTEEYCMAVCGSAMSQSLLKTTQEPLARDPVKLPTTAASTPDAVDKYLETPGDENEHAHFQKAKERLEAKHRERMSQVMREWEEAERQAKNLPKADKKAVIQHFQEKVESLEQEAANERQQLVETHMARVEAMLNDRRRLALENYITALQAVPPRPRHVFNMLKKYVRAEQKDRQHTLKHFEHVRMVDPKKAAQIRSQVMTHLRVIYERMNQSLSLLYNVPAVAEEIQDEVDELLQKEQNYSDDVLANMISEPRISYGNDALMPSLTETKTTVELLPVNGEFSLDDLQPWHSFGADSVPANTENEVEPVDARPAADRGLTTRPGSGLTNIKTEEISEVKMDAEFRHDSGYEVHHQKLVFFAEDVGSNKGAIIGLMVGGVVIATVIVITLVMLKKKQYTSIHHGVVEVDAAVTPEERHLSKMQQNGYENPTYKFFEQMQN

[5] = biological target: T2, Amine oxidase [flavin-containing] A; test: Inhibition of recombinant human MAO-A using kynuramine as substrate after 30 mins by fluorescence assay
[6] = biological target: T1, Amine oxidase [flavin-containing] B
Description: Inhibition of recombinant human MAO-B using kynuramine as substrate after 30 mins by fluorescence assay

Homo sapiens = organism: Homo sapiens; test: Selectivity index, ratio of IC50 for recombinant human MAO-A to IC50 for recombinant human MAO-B

What does the source list for `CCCCC1OC(=O)c2ccccc21` (racemic) [RAC-3-N-BUTYLPHTHALIDE]?
inhibition at 10 µM [1]: 18.2%; Activity [2]: 0.21 µMequiv/µM; inhibition at 10 µM [3]: 11.2%; inhibition [4]: 1.2%

For `CCCCCCCC1OC(=O)c2cc(N3N=C(C)CC3=O)ccc21` (stereo unspecified), which Activity [2] is on record?
The Activity was 1.18 µMequiv/µM.

And the inhibition [4]?
Its inhibition is 71.5%.

What does the source list for `CC1=NN(c2ccccc2)C(=O)C1` [EDARAVONE]?
inhibition at 10 µM [1]: 7.29%; Activity [2]: 0.72 µMequiv/µM; inhibition at 10 µM [3]: < 5%; inhibition [4]: 20.1%

For `CCCCC1OC(=O)c2cc(-n3nc(C(F)(F)F)cc3O)ccc21` (stereo unspecified), which Activity [2] is on record?
Its Activity is 2.22 µMequiv/µM.

And the inhibition [4]?
Its inhibition is 50.1 to 71.5%.

With `CCCCCCCC1OC(=O)c2cc(-n3nc(C(F)(F)F)cc3O)ccc21` (stereo unspecified) as the molecule, how does the Activity [2] read?
Its Activity is 2.21 µMequiv/µM.

What about the inhibition [4] of the same molecule?
Its inhibition is “inactive”.

For `CCCCCC1OC(=O)c2cc(-n3nc(C(F)(F)F)cc3O)ccc21` (stereo unspecified), which Activity [2] is on record?
The Activity was 2.37 µMequiv/µM.

What about the inhibition [4] of the same molecule?
Its inhibition is “inactive”.

What does the source list for `CCCCCCC1OC(=O)c2cc(N3N=C(C)CC3=O)ccc21` (stereo unspecified)?
IC50 [5]: 15.2 µM; IC50 [6]: 7.59 µM; Activity [2]: 0.85 µMequiv/µM; inhibition [4]: 50.1 to 71.5%; Ratio IC50 (Homo sapiens): 2

With `COc1cc(/C=C/C(=O)CC(=O)/C=C/c2ccc(O)c(OC)c2)ccc1O` as the molecule, how does the inhibition [4] read?
The inhibition was 39%.

For `CCCCCCC1OC(=O)c2cc(-n3nc(C(F)(F)F)cc3O)ccc21` (stereo unspecified), which Activity [2] is on record?
The Activity was 2.28 µMequiv/µM.

And the inhibition [4]?
Its inhibition is “inactive”.

For `CCCCCC1OC(=O)c2cc(N3N=C(C)CC3=O)ccc21` (stereo unspecified), which IC50 [5] is on record?
The IC50 was 19.3 µM.

What about the IC50 [6] of the same molecule?
The IC50 was 12.9 µM.

What about the Activity [2] of the same molecule?
Its Activity is 0.62 µMequiv/µM.

What about the inhibition [4] of the same molecule?
The inhibition was 50.1 to 71.5%.

What about the Ratio IC50 (Homo sapiens) of the same molecule?
Its Ratio IC50 is 1.5.

With `CCCCC1OC(=O)c2cc(N3N=C(C)CC3=O)ccc21` (stereo unspecified) as the molecule, how does the Activity [2] read?
Its Activity is 1.03 µMequiv/µM.

And the inhibition [4]?
The inhibition was 50.1 to 71.5%.
